What all share (assay type): biochemical
In assay [1] the target is T1, AhCobB (Aeromonas hydrophila, UniProt A0KKN9).
T1 construct: gene cobB; recombinant, pET-21b/32a vector, E. coli BL21(DE3), Ni-NTA purified
T1 sequence (A0KKN9 1-257): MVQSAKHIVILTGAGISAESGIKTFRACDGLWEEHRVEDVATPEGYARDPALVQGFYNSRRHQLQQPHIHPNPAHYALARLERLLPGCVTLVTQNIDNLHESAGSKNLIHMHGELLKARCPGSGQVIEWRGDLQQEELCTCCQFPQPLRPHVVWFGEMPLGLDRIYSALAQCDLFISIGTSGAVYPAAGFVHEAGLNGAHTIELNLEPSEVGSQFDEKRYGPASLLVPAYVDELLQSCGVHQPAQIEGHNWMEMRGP
The assay can be described thus: deacetylation of Kac-BSA, anti-Kac western blot. As to conditions: 0.5 mM NAM; 150 mM Tris-HCl pH 8.0, 10% glycerol, 37 °C, 3 h; inhibitor. (In western blotting, separated proteins are transferred to a membrane and probed.)

For assay [2], the target named is T1, AhCobB. The assay can be described thus: deacetylation of Kac-BSA, anti-Kac western blot. As to conditions: 0.25 mM NAD+ as co-substrate; 150 mM Tris-HCl pH 8.0, 10% glycerol, 37 °C, 3 h.
The target in the next assay is T2, ICD (Aeromonas hydrophila, UniProt A0KI74).
T2 construct: recombinant, pET-21b vector, E. coli BL21(DE3), Ni-NTA purified; non-acetylated form
T2 sequence (A0KI74 1-417): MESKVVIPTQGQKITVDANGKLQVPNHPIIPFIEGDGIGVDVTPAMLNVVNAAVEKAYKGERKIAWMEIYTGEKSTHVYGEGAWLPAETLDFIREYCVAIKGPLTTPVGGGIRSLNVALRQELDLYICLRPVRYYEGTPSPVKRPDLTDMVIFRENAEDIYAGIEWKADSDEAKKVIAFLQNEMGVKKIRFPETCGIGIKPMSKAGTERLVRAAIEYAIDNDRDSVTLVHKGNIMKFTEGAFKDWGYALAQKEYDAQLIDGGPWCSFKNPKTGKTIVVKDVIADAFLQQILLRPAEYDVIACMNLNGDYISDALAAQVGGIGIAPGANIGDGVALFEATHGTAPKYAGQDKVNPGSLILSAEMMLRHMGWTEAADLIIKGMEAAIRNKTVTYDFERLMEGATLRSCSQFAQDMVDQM
Nature of the assay: NADPH formation, absorbance at […] nm. To be noted: 0.5 mM NADP, 1.5 mM isocitrate, 3 mM MgCl2, 100 mM Tris-HCl pH 8.0, 10% glycerol.

For `NC(=O)c1cccnc1` [nicotinamide], the inhibition result at AhCobB [1] is reported as “the KDAC activity of AhCobB was inhibited when the sirtuin inhibitor nicotinamide (NAM) was added”.

Regarding `NC(=O)c1ccc[n+]([C@@H]2O[C@H](COP(=O)(O)OP(=O)(O)OC[C@H]3O[C@@H](n4cnc5c(N)ncnc54)[C@H](O)[C@@H]3O)[C@@H](O)[C@H]2O)c1` [NAD^+], the “deacetylation of Kac-BSA, anti-Kac western blot” value at AhCobB [2] is “AhCobB and AhAcuC significantly deacetylated Kac-BSA in the presence of NAD^+ or Zn2 ^+ buffer”.

For the compound `NC(=O)c1ccc[n+]([C@@H]2O[C@H](COP(=O)(O)OP(=O)(O)OC[C@H]3O[C@@H](n4cnc5c(N)ncnc54)[C@H](OP(=O)(O)O)[C@@H]3O)[C@@H](O)[C@H]2O)c1` [NADP^+], the “NADPH formation, absorbance at 340 nm” value on ICD was “The enzymatic activity of ICD was detected by measuring the amount of NADPH generated”.
